Among the data in PubChem BioAssay (NCI) are TGI and GI50 values, retold here.

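Interpolation was linear, between the two tested concentrations surrounding the appropriate level; five concentrations were tested over 48 hours in 96-well plates. GI50 is the concentration that inhibits growth by half. At the TGI there is no net growth.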 Non-standard residues stand in square brackets, D forms with d. Residues, ends and D or L forms follow the SMILES beside them. *: point of attachment. ONb = O=[N+]([O-])c1ccc(CO*)cc1; AllylGly = C=CC[CH](N)C(=O)O; Boc = CC(C)(C)OC(=O)* Bounds are passed on as bounds.

Among the test systems are NCI-H460 lung; OVCAR-4 ovarian; SF-268 CNS; SF-295 CNS; SK-MEL-5 melanoma; SNB-19 CNS; SNB-75 CNS.
What all share (experiment): NCI tumour cell line growth inhibition, 48 h

Turning to `Cc1cc(C)nc(NS(=O)(=O)c2ccc(Nc3c4ccccc4nc4c(C(=O)Nc5ccc(S(=O)(=O)N=C(N)N)cc5)ccc(Cl)c34)cc2)n1`, the TGI in the experiment with NCI-H460 lung was over 100 µM; in the experiment with OVCAR-4 ovarian, 75.4 µM; with SF-268 CNS, 97.2 µM; with SF-295 CNS, over 100 µM; in the experiment on SK-MEL-5 melanoma, over 100 µM; with SNB-19 CNS it was 46.7 µM. This compound displayed a TGI with SNB-75 CNS of over 100 µM.
As for `Cc1cnc2c(C)ccc([N+](=O)[O-])c2c1NCCCN(C)C`, the TGI in the experiment on NCI-H460 lung, in the experiment with OVCAR-4 ovarian, in the experiment on SF-268 CNS, with SF-295 CNS and in the experiment on SNB-19 CNS was over 100 µM throughout.
As for `CC[C@H](C)N(CCN)C(=O)c1cc2ccccc2c(-c2ccccc2Cl)n1`, the TGI was determined as 27.1 µM in the experiment on NCI-H460 lung; 30.1 µM in the experiment on OVCAR-4 ovarian; 7.81 µM in the experiment with SF-268 CNS; 28.4 µM with SF-295 CNS; 30.2 µM in the experiment with SNB-19 CNS.
With `O=C(c1ccccc1)C(C(=O)c1ccccc1)C1(O)C(=O)c2ccccc2C1=O`, the TGI in the experiment on SF-268 CNS, in the experiment on SF-295 CNS, with SNB-19 CNS and with SNB-75 CNS was over 100 µM each time.
Turning to `O=C1C(=O)N(C(=O)c2ccc(Cl)c(Cl)c2)c2ccccc21`, the TGI with OVCAR-4 ovarian, with SF-268 CNS, in the experiment with SF-295 CNS, with SK-MEL-5 melanoma, with SNB-19 CNS and with SNB-75 CNS was over 100 µM in each case.
Turning to `O=C(O)c1c(-c2cccc3ccccc23)sc(-c2cccc3ccccc23)c1C(=O)O`, the TGI in the experiment with NCI-H460 lung, in the experiment on SF-268 CNS, with SF-295 CNS, in the experiment on SK-MEL-5 melanoma, in the experiment on SNB-19 CNS and with SNB-75 CNS was over 100 µM throughout.
In the case of `Cc1cc2c(c(C#N)c1C)NC(=O)CCC2=O`, the TGI in the experiment on NCI-H460 lung, in the experiment with OVCAR-4 ovarian, in the experiment with SF-295 CNS and in the experiment with SNB-75 CNS was over 100 µM each time.
Regarding `CCOC(=O)C(=O)Nc1nc2c(s1)C(=O)c1ccccc1C2=O`, the TGI in the experiment with NCI-H460 lung was found to be 45.8 µM; with OVCAR-4 ovarian it was 31.5 µM; in the experiment with SF-268 CNS, 27.3 µM; in the experiment with SK-MEL-5 melanoma, 33.7 µM; in the experiment with SNB-19 CNS it was 31.9 µM; in the experiment on SNB-75 CNS it was 30.2 µM.
As to `C=CCC(NC(=O)OC(C)(C)C)C(=O)NC(CCC(=O)OCc1ccc([N+](=O)[O-])cc1)C(N)=O` (stereo not drawn) (Boc-[AllylGly]-Glu(ONb)-NH2; configuration not given here), the GI50 in the experiment with NCI-H460 lung was 24.7 µg/mL; in the experiment on OVCAR-4 ovarian it was 87.2 µg/mL; in the experiment on SF-268 CNS it was 21.8 µg/mL; with SF-295 CNS, 16.9 µg/mL; in the experiment on SNB-75 CNS, 21.4 µg/mL. Moreover, the TGI was 49.8 µg/mL with NCI-H460 lung, 49.7 µg/mL in the experiment with SF-268 CNS, 37.9 µg/mL in the experiment with SF-295 CNS and 51.5 µg/mL in the experiment with SNB-75 CNS.
With `COc1cc(OC)c([C@@H]2OC(=O)C3C2C(=O)O[C@H]3c2cc(OC)c(OC)cc2OC)cc1OC` (stereo partly drawn), the TGI in the experiment on NCI-H460 lung, in the experiment on OVCAR-4 ovarian, in the experiment on SF-295 CNS, with SNB-19 CNS and with SNB-75 CNS was over 100 µM in each case.
As to `CNC(P(=O)([O-])[O-])P(=O)([O-])[O-].N.N.[Pt+2]`, the GI50 in the experiment on NCI-H460 lung was 51.2 µM; in the experiment with OVCAR-4 ovarian it was over 100 µM; in the experiment with SF-268 CNS, over 100 µM; in the experiment with SF-295 CNS it was over 100 µM; in the experiment on SNB-19 CNS it was over 100 µM; with SNB-75 CNS it was over 100 µM. Besides, the TGI in the experiment with NCI-H460 lung, in the experiment on OVCAR-4 ovarian, with SF-268 CNS, in the experiment on SF-295 CNS, in the experiment with SNB-19 CNS and in the experiment with SNB-75 CNS was over 100 µM in each case.
For `Cc1ccc(OCC(=O)N2N=C(c3ccccc3)CC2(O)c2ccccc2)cc1` (stereo not drawn), the TGI in the experiment with NCI-H460 lung was 28.2 µM; with OVCAR-4 ovarian it was 71.6 µM; in the experiment with SF-268 CNS, over 100 µM; with SF-295 CNS, over 100 µM; in the experiment on SNB-19 CNS, over 100 µM; with SNB-75 CNS it was over 100 µM.
Turning to `CC(=O)O/C=C(/C=C/OC(C)=O)C(C/C=C(\C)C#CC=C(C)C)OC(C)=O` (stereo not drawn), the TGI in the experiment with NCI-H460 lung, with OVCAR-4 ovarian, in the experiment with SF-268 CNS, with SF-295 CNS, in the experiment with SK-MEL-5 melanoma and with SNB-19 CNS was over 100 µM throughout.
Consider `Nc1ccn(CCOC(=O)c2ccccc2)c(=O)n1`, for which the TGI with NCI-H460 lung, with OVCAR-4 ovarian, with SF-268 CNS, in the experiment with SF-295 CNS, in the experiment on SK-MEL-5 melanoma and with SNB-75 CNS was over 100 µM in each case.
As for `O=C(CNc1nncs1)NO`, the TGI with NCI-H460 lung, in the experiment on OVCAR-4 ovarian, in the experiment on SF-268 CNS, in the experiment with SF-295 CNS, in the experiment with SNB-19 CNS and in the experiment on SNB-75 CNS was over 100 µM in each case.
